{"source": "patent US11753409B2", "about": "“Crystalline salts of a B-RAF kinase inhibitor” (Xynomic Pharmaceuticals, Inc., priority 2017, dated 2023)", "key": {"[1]": {"test": "Pharmacokinetics following oral administration to rats", "format": "in vivo, HsdHan:WIST Norway rats", "details": "rat; for AUD: AUD range 0-6 h; for concentration at 24 h: mean n = 3, read-out: Blood Plasma Concentrations", "protocol": "The pharmacokinetics of N-(3-(5-((1-ethylpiperidin-4-yl)(methyl)amino)-3-(pyrimidin-5-yl)-1H-pyrrolo[3,2-b]pyridin-1-yl)-2,4-difluorophenyl)propane-1-sulfonamide hydrochloride salt and N-(3-(5-((1-ethylpiperidin-4-yl)(methyl)amino)-3-(pyrimidin-5-yl)-1H-pyrrolo[3,2-b]pyridin-1-yl)-2,4-difluorophenyl)propane-1-sulfonamide […] following oral administration at 40 mg and 80 mg (dose calculated as the free base) to HsdHan:WIST Norway rats. Each salt was administered to 3 animals."}, "[2]": {"test": "Intrinsic dissolution rate, rotating disc method", "format": "physicochemical", "protocol": "The intrinsic dissolution rate of 3-(5-((1-ethylpiperidin-4-yl)(methyl)amino)-3-(pyrimidin-5-yl)-1H-pyrrolo[3,2-b]pyridin-1-yl)-2,4-difluorophenyl)propane-1-sulfonamide salts was determined in aqueous media covering a range of pH 1.1-7.4 using the rotating disc method which maintains a constant surface area.\nThe drug substance (5 mg) was compressed at 356.1 Newtons for 60 s to form a disk. These disks were mounted to sample holders which fit into a miniaturized dissolution testing apparatus. The dissolution media were stirred at 200 rpm at a temperature of 37° C. Samples were automatically withdrawn every second minute from the dissolution vessel and assayed by UV spectrophotometry.\nThe intrinsic dissolution rate of N-(3-(5-((1-ethylpiperidin-4-yl)(methyl)amino)-3-(pyrimidin-5-yl)-TH-pyrrolo[3,2-b]pyridin-1-yl)-2,4-difluorophenyl)propane-1-sulfonamide monohydrochloride salt in various media was measured in media at various pH values.\nThe intrinsic dissolution rate of N-(3-(5-((1-ethylpiperidin-4-yl)(methyl)amino)-3-(pyrimidin-5-yl)-1H-pyrrolo[3,2-b]pyridin-1-yl)-2,4-difluorophenyl)propane-1-sulfonamide monosuccinate salt in various media was measured in media at various pH values."}, "[3]": {"test": "Sorption-desorption (DVS) of the salts with XRPD before and after", "format": "physicochemical", "protocol": "Dynamic Vapor Sorption (DVS) was performed in a IGAsorp Water Sorption Analyzer from Hiden Isochema. Adsorption and desorption isotherms were performed at 25° C. with 10% RH step intervals ranging from 0% relative humidity up to 90% relative humidity."}, "[4]": {"test": "Milling and compression stress followed by XRPD", "format": "physicochemical", "protocol": "FIG. 20 is a plot of the XRPD of N-(3-(5-((1-ethylpiperidin-4-yl)(methyl)amino)-3-(pyrimidin-5-yl)-1H-pyrrolo[3,2-b]pyridin-1-yl)-2,4-difluorophenyl)propane-1-sulfonamide monohydrochloride salt following milling in a swing mill for 10 min. at 30 rps.\nFIG. 21 is a plot of the XRPD of N-(3-(5-((1-ethylpiperidin-4-yl)(methyl)amino)-3-(pyrimidin-5-yl)-1H-pyrrolo[3,2-b]pyridin-1-yl)-2,4-difluorophenyl)propane-1-sulfonamide monohydrochloride salt following compression at 2000 N for 1 s to a tablet (diameter-5 mm).\nFIG. 31 is a plot of the XRPD of N-(3-(5-((1-ethylpiperidin-4-yl)(methyl)amino)-3-(pyrimidin-5-yl)-1H-pyrrolo[3,2-b]pyridin-1-yl)-2,4-difluorophenyl)propane-1-sulfonamide monosuccinate salt following milling in a swing mill for 10 min. at 30 rps.\nFIG. 32 is a plot of the XRPD of N-(3-(5-((1-ethylpiperidin-4-yl)(methyl)amino)-3-(pyrimidin-5-yl)-1H-pyrrolo[3,2-b]pyridin-1-yl)-2,4-difluorophenyl)propane-1-sulfonamide monosuccinate salt following compression at 2000 N for 1 s to a tablet (diameter-5 mm)."}, "[5]": {"test": "Intrinsic dissolution rate, rotating disc method", "format": "physicochemical", "details": "pH of medium 1.0 (0.1M HCl), 37° C."}, "[6]": {"test": "Equilibrium solubility in various aqueous media (solubility after 2 h)", "format": "physicochemical", "details": "thermodynamic from solid", "protocol": "Saturated solutions are prepared in well plates by adding an appropriate volume of selected aqueous media (typically in the range of 0.25-1.5 mL) into each well which contains a known quantity of solid drug substance (typically in the range 0.5-5.0 mg). The wells are shaken or stirred for a predefined time period (typically in a range of 2-24 h) and then filtered using appropriate filter membranes (typically PTFE-filters with 0.45 μm pore size). Filter absorption is avoided by discarding the first few drops of filtrate. The amount of dissolved drug substance is determined by UV spectroscopy. In addition, the pH of the aqueous saturated solution is measured using a glass-electrode pH meter.\nThe equilibrium solubility of N-(3-(5-((1-Ethylpiperidin-4-yl)(methyl)amino)-3-(pyrimidin-5-yl)-1H-pyrrolo[3,2-b]pyridin-1-yl)-2,4-difluorophenyl)propane-1-sulfonamide monohydrochloride salt in various media was determined.\nThe solubility of N-(3-(5-((1-Ethylpiperidin-4-yl)(methyl)amino)-3-(pyrimidin-5-yl)-1H-pyrrolo[3,2-b]pyridin-1-yl)-2,4-difluorophenyl)propane-1-sulfonamide monosuccinate salt in various media was determined."}, "[7]": {"details": "HsdHan:WIST, plasma, 40 mg/kg oral"}}, "note": "Where two headings read alike, the source gives them in different places.", "data": [{"smiles": "CCCS(=O)(=O)Nc1ccc(F)c(-n2cc(-c3cncnc3)c3nc(N(C)C4CCN(CC)CC4)ccc32)c1F.Cl", "note": "[Monohydrochloride Salt, N-(3-(5-((1-Ethylpiperidin-4-yl)(methyl)amino)-3-(pyrimidin-5-yl)-1H-pyrrolo[3,2-b]pyridin-1-yl)-2,4-difluorophenyl)propane-1-sulfonamide monohydrochloride salt]", "values": [{"measurement": "AUD", "setting": "[1]; 40 mg/kg oral", "value": 0.312, "unit": "µM·h"}, {"measurement": "AUD", "setting": "[1]; 80 mg/kg oral", "value": 1.04, "unit": "µM·h"}, {"measurement": "Cmax", "setting": "[1]; HsdHan:WIST, in vivo, 80 mg/kg oral", "value": 419, "unit": "nM"}, {"measurement": "bioavailability", "setting": "[1]; HsdHan:WIST, plasma, po, 40 mg/kg dose", "value": 1, "unit": "%"}, {"measurement": "Cmax", "setting": "[1]; [7]", "value": 123, "unit": "nM"}, {"measurement": "Tmax", "setting": "[1]; [7]", "value": 3.3, "unit": "h"}, {"measurement": "Tmax", "setting": "[1]; HsdHan:WIST, plasma, 80 mg/kg oral", "value": 4, "unit": "h"}, {"measurement": "concentration at 24 h", "setting": "[1]; Time 0.5, 40 mg/kg oral", "value": 3.53, "unit": "nM"}, {"measurement": "concentration at 24 h", "setting": "[1]; Time 1.0, 40 mg/kg oral", "value": 6.56, "unit": "nM"}, {"measurement": "concentration at 24 h", "setting": "[1]; Time 1.0, 80 mg/kg oral", "value": 3.69, "unit": "nM"}, {"measurement": "concentration at 24 h", "setting": "[1]; Time 2.0, 40 mg/kg oral", "value": 107, "unit": "nM"}, {"measurement": "concentration at 24 h", "setting": "[1]; Time 2.0, 80 mg/kg oral", "value": 69.9, "unit": "nM"}, {"measurement": "concentration at 24 h", "setting": "[1]; Time 4.0, 40 mg/kg oral", "value": 60.9, "unit": "nM"}, {"measurement": "concentration at 24 h", "setting": "[1]; Time 4.0, 80 mg/kg oral", "value": 419, "unit": "nM"}, {"measurement": "concentration at 24 h", "setting": "[1]; Time 6.0, 40 mg/kg oral", "value": 13.3, "unit": "nM"}, {"measurement": "concentration at 24 h", "setting": "[1]; Time 6.0, 80 mg/kg oral", "value": 69, "unit": "nM"}, {"measurement": "Intrinsic Dissolution Rate", "setting": "[2]; pH of medium 2.2, 37° C.", "value": 121, "unit": "μg/cm^2/min."}, {"measurement": "Intrinsic Dissolution Rate", "setting": "[2]; pH of medium 3.0, 37° C.", "value": 80, "unit": "μg/cm^2/min."}, {"measurement": "Intrinsic Dissolution Rate", "setting": "[2]; pH of medium 4.5, 37° C.", "value": 38, "unit": "μg/cm^2/min."}, {"measurement": "Intrinsic Dissolution Rate", "setting": "[2]; pH of medium 6.8, 37° C.", "value": 15, "unit": "μg/cm^2/min."}, {"measurement": "Intrinsic Dissolution Rate", "setting": "[2]; pH of medium 7.4, 37° C.", "value": 3, "unit": "μg/cm^2/min."}, {"measurement": "Change in structure (XRPD) after sorption-desorption experiment", "setting": "[3]; XRPD before and after", "value": "no significant change in structure occurred"}, {"measurement": "Reversible weight gain (isotherm sorption-desorption)", "setting": "[3]; range from 0-80% relative humidity", "value": "approximately 2.5%"}, {"measurement": "Reversible weight gain (isotherm sorption-desorption)", "setting": "[3]; range from 0-90% relative humidity", "value": "approximately 400%"}, {"measurement": "Weight gain (sorption-desorption)", "setting": "[3]; range from 10-90% relative humidity, scale-up sample", "value": "approximately 2.4%"}, {"measurement": "Crystallinity and polymorphic form after compression (XRPD)", "setting": "[4]; 2000 N for 1 s to a tablet (diameter 5 mm)", "value": "slight decrease in crystallinity but no change in polymorphic form"}, {"measurement": "Crystallinity and polymorphic form after milling (XRPD)", "setting": "[4]; swing mill for 10 min. at 30 rps", "value": "significant decrease in crystallinity but no change in polymorphic form"}, {"measurement": "Intrinsic Dissolution Rate", "setting": "[5]", "value": 4, "unit": "μg/cm^2/min."}, {"measurement": "solubility at 2 h", "setting": "[6]; 0.01 M HCl, simulated gastric fluid, HCl (0.01M)", "value": 20, "unit": "µg/mL"}, {"measurement": "solubility at 2 h", "setting": "[6]; 0.1 M HCl, simulated gastric fluid, HCl (0.1M)", "value": 60, "unit": "µg/mL"}, {"measurement": "solubility at 2 h", "setting": "[6]; aqueous buffer, 0.1M Citric acid", "value": 400, "unit": "µg/mL"}, {"measurement": "solubility at 2 h", "setting": "[6]; aqueous buffer, 0.1M NaOH", "value": "> 10000", "unit": "µg/mL"}, {"measurement": "solubility at 2 h", "setting": "[6]; aqueous buffer, Acetate Buffer (pH 5.0)", "value": 200, "unit": "µg/mL"}, {"measurement": "solubility at 2 h", "setting": "[6]; aqueous buffer, McIlvaine Buffer (pH 2.2)", "value": 400, "unit": "µg/mL"}, {"measurement": "solubility at 2 h", "setting": "[6]; aqueous buffer, McIlvaine Buffer (pH 3.0)", "value": 200, "unit": "µg/mL"}, {"measurement": "solubility at 2 h", "setting": "[6]; aqueous buffer, McIlvaine Buffer (pH 4.0)", "value": 100, "unit": "µg/mL"}, {"measurement": "solubility at 2 h", "setting": "[6]; aqueous buffer, McIlvaine Buffer (pH 4.5)", "value": 200, "unit": "µg/mL"}, {"measurement": "solubility at 2 h", "setting": "[6]; aqueous buffer, McIlvaine Buffer (pH 5.0)", "value": 200, "unit": "µg/mL"}, {"measurement": "solubility at 2 h", "setting": "[6]; aqueous buffer, McIlvaine Buffer (pH 6.0)", "value": 100, "unit": "µg/mL"}, {"measurement": "solubility at 2 h", "setting": "[6]; aqueous buffer, McIlvaine Buffer (pH 6.8)", "value": 100, "unit": "µg/mL"}, {"measurement": "solubility at 2 h", "setting": "[6]; aqueous buffer, McIlvaine Buffer (pH 7.4)", "value": 10, "unit": "µg/mL"}, {"measurement": "solubility at 2 h", "setting": "[6]; aqueous buffer, Phosphate Buffer (pH 6.8)", "value": 200, "unit": "µg/mL"}, {"measurement": "solubility at 2 h", "setting": "[6]; aqueous buffer, Sorensen Buffer (pH 9.0)", "value": 10, "unit": "µg/mL"}, {"measurement": "solubility at 2 h", "setting": "[6]; aqueous buffer, Sorensen Buffer (pH 11)", "value": 700, "unit": "µg/mL"}, {"measurement": "solubility at 2 h", "setting": "[6]; Simulated intestinal fluid (FaSSIF)", "value": 2, "unit": "µg/mL"}, {"measurement": "solubility at 2 h", "setting": "[6]; Simulated intestinal fluid (FeSSIF)", "value": 30, "unit": "µg/mL"}, {"measurement": "solubility at 2 h", "setting": "[6]; water", "value": 100, "unit": "µg/mL"}]}]}
